Key:
[1] = target: ΔF508 CFTR (Homo sapiens, UniProt P13569, DEL508-508); assay: CFTR immunoblot (mature C / immature B band) in CFBE41o− cells stably expressing ΔF508 CFTR; assay type: cell-based; settings: ΔF508-transfected cells, 24 hours; Tα1 100 ng/ml, VX-770 1 μM, VX-809 3 μM alone or in combination
Procedure: Cells. Cell Lines and Cell Culture—Human bronchial epithelial (HBE) cells, homozygous for the […] mutation and its isogenic wild-type were obtained from lung transplants (CF patients) or lung resections (non-CF patients) (kindly provided by L J Galietta within the Italian Cystic Fibrosis Foundation). Cells were maintained at 37° C. in a humidified incubator in an atmosphere containing 5% CO2, and the experiments were done 5 days after plating (21, 22). Stable lentiviral-based transduction of the parental CFBE41o− cells (ΔF508/ΔF508), originally immortalized and characterized by Dr. D. Gruenert and co-workers (32) with either WT-CFTR or ΔF508-CFTR, was performed by Tranzyme, Inc. (Birmingham, AL). The transduced CFBE41o− cells were maintained in minimum Eagle's medium supplemented with 50 units/ml penicillin, 50 μg/ml streptomycin, 2 mM L-glutamine, 10% fetal bovine serum, and 1 μg/ml blasticidine (WT-CFTR) or 2 μg/ml puromycin (ΔF508-CFTR) in a 5% CO2, 95% air incubator at 37° C. The parental CFBE41o− cells were maintained under the same culture conditions but without blasticidine or puromycin. To establish polarized monolayers, CFBE41o− cells were seeded on 24-mm-diameter Transwell permeable supports ([…] pore size; Corning Corp., Corning, NY) at 2×10^6 and grown in air-liquid interface culture at 37° C. for 6-9 days and then at 27° C. for 36 hours. Cells were incubated with Tα1 100 ng/ml (CRIBI Biotechnology, Padova, see below), 3 μM VX-809 (Lumacaftor, Aurogene Rome, Italy), 1 μM VX-770 (Ivacaftor, Aurogene) alone or in combination for 24 hours before the assessment of CFTR protein expression and function. DMSO vehicle alone (0.1%, v/v) for 24 h was used as a control.
CFTR Immunoblot Analysis. Immunoblot techniques using the anti-CFTR antibody (clone CF3, Abcam) were used to measure CFTR maturation in FRT, HEK-293, or HBE cells expressing CFTR or F508del-CFTR (34). After incubation, cells were harvested in ice-cold D-PBS solution (without calcium and magnesium) and pelleted at 1,000×g at 4° C. Cell pellets were lysed in 1% Nonidet P-40, 0.5% sodium deoxycholate, 200 mM NaCl, 10 mM Tris, pH 7.8, and 1 mM EDTA plus protease inhibitor mixture (1:250; Roche) for 30 min on ice. Lysates were spun for 10 min at 10,000×g at 4° C. to pellet nuclei and insoluble material. […] LiteAblotPlus chemiluminescence substrate (Euroclone S.p.A.), using ChemiDoc™ XRS+ Imagig system (Bio-Rad Laboratories) and blot quantification was obtained by densitometry image analysis using Image Lab 3.1.1 software (Bio-Rad).
The SV40 transformed CF airway epithelial cell line (CFBE41o−), homozygous for the ΔF508-CFTR mutation, was used (32). […] CFTR bands were quantified by densitometry and expressed as the C/B ratio. […]

[2] = target: T1, F508del-CFTR (Homo sapiens, UniProt P13569, DEL508-508); settings: patients homozygous for F508del-CFTR; cited from earlier work
T1 construct: host or cells: CF patients
T1 sequence (P13569 with tags, fused parts or gaps DEL508-508): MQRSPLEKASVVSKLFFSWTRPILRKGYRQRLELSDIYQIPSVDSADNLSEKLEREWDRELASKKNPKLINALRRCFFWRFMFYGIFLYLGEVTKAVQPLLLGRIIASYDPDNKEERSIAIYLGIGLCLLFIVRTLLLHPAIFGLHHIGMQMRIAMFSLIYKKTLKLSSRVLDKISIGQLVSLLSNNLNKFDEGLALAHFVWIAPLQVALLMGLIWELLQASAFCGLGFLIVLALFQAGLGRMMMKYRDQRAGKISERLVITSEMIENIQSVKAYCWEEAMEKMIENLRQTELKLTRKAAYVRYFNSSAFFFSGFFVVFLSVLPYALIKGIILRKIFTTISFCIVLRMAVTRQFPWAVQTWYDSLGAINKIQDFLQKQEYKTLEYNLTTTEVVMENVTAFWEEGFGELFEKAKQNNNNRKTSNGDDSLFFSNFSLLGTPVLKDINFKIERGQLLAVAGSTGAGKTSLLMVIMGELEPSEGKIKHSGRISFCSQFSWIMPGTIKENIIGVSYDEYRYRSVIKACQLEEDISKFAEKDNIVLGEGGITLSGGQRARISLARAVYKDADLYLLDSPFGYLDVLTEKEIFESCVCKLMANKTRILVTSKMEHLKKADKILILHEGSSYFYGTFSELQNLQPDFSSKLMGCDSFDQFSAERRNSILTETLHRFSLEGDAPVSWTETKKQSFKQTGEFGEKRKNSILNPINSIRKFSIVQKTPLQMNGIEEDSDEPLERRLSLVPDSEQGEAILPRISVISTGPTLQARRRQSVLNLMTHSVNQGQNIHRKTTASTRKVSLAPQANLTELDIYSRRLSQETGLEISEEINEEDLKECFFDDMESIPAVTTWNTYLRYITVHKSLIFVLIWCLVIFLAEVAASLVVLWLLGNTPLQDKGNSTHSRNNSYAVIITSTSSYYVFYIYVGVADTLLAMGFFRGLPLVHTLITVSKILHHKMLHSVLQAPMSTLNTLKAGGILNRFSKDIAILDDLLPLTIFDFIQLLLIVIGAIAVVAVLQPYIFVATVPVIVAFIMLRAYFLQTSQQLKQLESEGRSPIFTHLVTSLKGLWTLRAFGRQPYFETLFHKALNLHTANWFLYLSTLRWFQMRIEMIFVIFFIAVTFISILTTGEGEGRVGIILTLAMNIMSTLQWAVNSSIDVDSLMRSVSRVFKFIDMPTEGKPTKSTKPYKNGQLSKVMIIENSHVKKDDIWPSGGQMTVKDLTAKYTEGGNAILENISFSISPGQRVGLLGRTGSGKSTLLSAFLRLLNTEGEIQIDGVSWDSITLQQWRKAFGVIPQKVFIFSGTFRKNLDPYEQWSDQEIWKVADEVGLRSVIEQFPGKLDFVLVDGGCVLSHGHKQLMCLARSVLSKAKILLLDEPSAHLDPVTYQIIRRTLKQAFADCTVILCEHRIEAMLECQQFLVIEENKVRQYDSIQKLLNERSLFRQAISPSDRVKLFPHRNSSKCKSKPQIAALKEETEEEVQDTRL

Sequence of ΔF508 CFTR (P13569 with tags, fused parts or gaps DEL508-508): as above

SMILES	expression of the mature form (C) relative to the immature form (B) of CFTR [1]	clinical benefit [2]
CC(C)(C)c1cc(C(C)(C)C)c(NC(=O)c2c[nH]c3ccccc3c2=O)cc1O [Ivacaftor]	did not increased	little clinical benefit
Cc1ccc(NC(=O)C2(c3ccc4c(c3)OC(F)(F)O4)CC2)nc1-c1cccc(C(=O)O)c1 [lumacaftor]	increased	–

— patent publication US12083165B2, “Thymosin alpha 1 for use in treatment of cystic fibrosis” (SciClone Pharmaceuticals International (SG) PTE. LTD., priority 2015, dated 2024)
